Target: Cdk9/cyclinT1 (Homo sapiens, UniProt P50750)
Test: Cdk9/cyclinT1 kinase assay (IMAP or Alpha Screen protocol)

Chain of Cdk9/cyclinT1 (P50750 whole entry): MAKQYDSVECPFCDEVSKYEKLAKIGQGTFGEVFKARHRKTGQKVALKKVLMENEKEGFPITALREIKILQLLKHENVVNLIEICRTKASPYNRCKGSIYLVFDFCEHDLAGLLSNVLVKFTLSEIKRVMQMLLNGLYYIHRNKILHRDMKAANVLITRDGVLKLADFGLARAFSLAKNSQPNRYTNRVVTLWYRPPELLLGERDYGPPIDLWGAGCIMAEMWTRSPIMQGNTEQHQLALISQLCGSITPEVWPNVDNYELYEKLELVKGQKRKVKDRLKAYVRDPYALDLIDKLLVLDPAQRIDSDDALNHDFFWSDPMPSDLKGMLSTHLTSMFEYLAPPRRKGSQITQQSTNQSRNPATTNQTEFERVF
Chain of Cdk9/cyclinT1 (O60563 whole entry partner): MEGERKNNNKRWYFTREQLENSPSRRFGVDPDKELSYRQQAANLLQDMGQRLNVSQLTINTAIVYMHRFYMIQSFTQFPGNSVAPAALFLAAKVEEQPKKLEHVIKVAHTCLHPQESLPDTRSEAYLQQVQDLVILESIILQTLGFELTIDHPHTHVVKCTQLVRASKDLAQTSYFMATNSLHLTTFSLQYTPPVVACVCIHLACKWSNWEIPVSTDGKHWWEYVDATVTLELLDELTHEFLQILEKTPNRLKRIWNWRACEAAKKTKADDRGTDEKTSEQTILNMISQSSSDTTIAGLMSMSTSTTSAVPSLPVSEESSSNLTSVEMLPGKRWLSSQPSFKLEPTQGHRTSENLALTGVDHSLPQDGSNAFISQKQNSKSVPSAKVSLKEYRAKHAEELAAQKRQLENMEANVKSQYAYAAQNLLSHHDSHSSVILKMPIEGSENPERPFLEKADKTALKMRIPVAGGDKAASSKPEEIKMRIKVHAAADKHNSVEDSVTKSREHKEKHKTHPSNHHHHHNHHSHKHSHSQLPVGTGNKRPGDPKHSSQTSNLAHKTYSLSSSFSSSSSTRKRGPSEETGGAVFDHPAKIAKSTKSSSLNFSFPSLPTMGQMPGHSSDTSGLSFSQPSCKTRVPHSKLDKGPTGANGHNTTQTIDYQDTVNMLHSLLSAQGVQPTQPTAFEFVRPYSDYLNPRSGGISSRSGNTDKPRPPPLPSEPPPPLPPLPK

Row | IC50 [nM] | SMILES
1 | 130 | O=C(Nc1cc(-c2cncc(NCC3CCOCC3)n2)c(C(F)(F)F)cn1)[C@@H]1CCCNC1 [Example 61, (R)-Piperidine-3-carboxylic acid (4-{6-[(tetrahydro-pyran-4-ylmethyl)-amino]-pyrazin-2-yl}-5-trifluoromethyl-pyridin-2-yl)-amide]
2 | < 8 | CN1CC(C(=O)Nc2cc(-c3cncc(NCC4CCOCC4)n3)c(Cl)cn2)CC1=O (centres unmarked) [Example 68, 1-Methyl-5-oxo-pyrrolidine-3-carboxylic acid (5-chloro-4-{6-[(tetrahydro-pyran-4-ylmethyl)-amino]-pyrazin-2-yl}-pyridin-2-yl)-amide]
3 | < 8 | CS(=O)(=O)N[C@@H]1CC[C@@H](C(=O)Nc2cc(-c3cncc(NCC4CCOCC4)n3)c(Cl)cn2)C1 [Example 52, (1R,3R)-3-Methanesulfonylamino-cyclopentanecarboxylic acid (5-chloro-4-{6-[(tetrahydro-pyran-4-ylmethyl)-amino]-pyrazin-2-yl}-pyridin-2-yl)-amide]
4 | < 8 | CS(=O)(=O)N[C@H]1CC[C@@H](C(=O)Nc2cc(-c3cncc(NCC4CCOCC4)n3)c(Cl)cn2)C1 [Example 51, (1R,3S)-3-Methanesulfonylamino-cyclopentanecarboxylic acid (5-chloro-4-{6-[(tetrahydro-pyran-4-ylmethyl)-amino]-pyrazin-2-yl}-pyridin-2-yl)-amide]
5 | < 8 | CC(C)OC(=O)N1CCC[C@H](C(=O)Nc2cc(-c3cncc(NCC4CCOCC4)n3)c(Cl)cn2)C1 [Example 46, (S)-3-(5-Chloro-4-{6-[(tetrahydro-pyran-4-ylmethyl)-amino]-pyrazin-2-yl}-pyridin-2-ylcarbamoyl)-piperidine-1-carboxylic acid isopropyl ester]
6 | < 8 | CC(=O)N1CCC[C@H](C(=O)Nc2cc(-c3cncc(NCC4CCOCC4)n3)c(Cl)cn2)C1 [Example 48, (S)-1-Acetyl-piperidine-3-carboxylic acid (5-chloro-4-{6-[(tetrahydro-pyran-4-ylmethyl)-amino]-pyrazin-2-yl}-pyridin-2-yl)-amide]
7 | < 8 | N[C@H]1CC[C@@H](C(=O)Nc2cc(-c3cncc(NCC4CCOCC4)n3)c(Cl)cn2)C1 [Example 43, (1R,3S)-3-Amino-cyclopentanecarboxylic acid (5-chloro-4-{6-[(tetrahydro-pyran-4-ylmethyl)-amino]-pyrazin-2-yl}-pyridin-2-yl)-amide]
8 | 25 | N[C@@H]1CC[C@H](C(=O)Nc2cc(-c3cncc(NCC4CCOCC4)n3)c(Cl)cn2)C1 [Example 42, (1S,3R)-3-Amino-cyclopentanecarboxylic acid (5-chloro-4-{6-[(tetrahydro-pyran-4-ylmethyl)-amino]-pyrazin-2-yl}-pyridin-2-yl)-amide]
9 | 47 | O=C(Nc1cc(-c2cncc(N[C@@H]3CC34CCOCC4)n2)c(Cl)cn1)[C@@H]1CCCNC1 [Example 63, (R)-Piperidine-3-carboxylic acid (5-chloro-4-{6-[(R)-(6-oxa-spiro[2.5]oct-1-yl)amino]-pyrazin-2-yl}-pyridin-2-yl)-amide]
10 | 100 | CCS(=O)(=O)N1CCC[C@H](C(=O)Nc2cc(-c3cncc(NCC4CCOCC4)n3)c(C(F)(F)F)cn2)C1 [Example 66, (S)-1-Ethanesulfonyl-piperidine-3-carboxylic acid (4-{6-[(tetrahydro-pyran-4-ylmethyl)-amino]-pyrazin-2-yl}-5-trifluoromethyl-pyridin-2-yl)-amide]
11 | < 8 | COCC(=O)N1CCC[C@H](C(=O)Nc2cc(-c3cncc(NCC4CCOCC4)n3)c(Cl)cn2)C1 [Example 47, (S)-1-(2-Methoxy-acetyl)-piperidine-3-carboxylic acid (5-chloro-4-{6-[(tetrahydro-pyran-4-ylmethyl)-amino]-pyrazin-2-yl}-pyridin-2-yl)-amide]

Further lines, the compound ahead of its results:

Row | SMILES | IC50 [nM]
12 | CC(=O)NCCNc1cncc(-c2cc(NC(=O)[C@@H]3CCCNC3)ncc2Cl)n1 [Example 19, (R)-Piperidine-3-carboxylic acid {4-[6-(2-acetylamino-ethylamino)-pyrazin-2-yl]-5-chloro-pyridin-2-yl}-amide] | 153
13 | CC(C)C(=O)Nc1cc(-c2cncc(NCC3CCOCC3)n2)c(Cl)cn1 [Example 12, N-(5-Chloro-4-{6-[(tetrahydro-pyran-4-ylmethyl)-amino]-pyrazin-2-yl}-pyridin-2-yl)-isobutyramide] | < 8
14 | O=C(Nc1cc(-c2cncc(NCC3CCOCC3)n2)c(Cl)cn1)[C@@H]1CCCN1 [Example 40, (S)-Pyrrolidine-2-carboxylic acid (5-chloro-4-{6-[(tetrahydro-pyran-4-ylmethyl)-amino]-pyrazin-2-yl}-pyridin-2-yl)-amide] | 37
15 | C[C@@H](O)CNc1cncc(-c2cc(NC(=O)[C@@H]3CCCNC3)ncc2Cl)n1 [Example 28, (R)-Piperidine-3-carboxylic acid {5-chloro-4-[6-((R)-2-hydroxy-propylamino)-pyrazin-2-yl]-pyridin-2-yl}-amide] | 15
16 | O=C(Nc1cc(-c2cncc(NCC3CCCOC3)n2)c(Cl)cn1)[C@@H]1CCCNC1 (stereo partly drawn) [Example 26, (R)-Piperidine-3-carboxylic acid (5-chloro-4-{6-[(tetrahydro-pyran-3-ylmethyl)-amino]-pyrazin-2-yl}-pyridin-2-yl)-amide] | < 8
17 | Cc1ncc(NCC2CCOCC2)nc1-c1cc(NC(=O)[C@@H]2CCCNC2)ncc1Cl [Example 24, (R)-Piperidine-3-carboxylic acid (5-chloro-4-{3-methyl-6-[(tetrahydro-pyran-4-ylmethyl)-amino]-pyrazin-2-yl}-pyridin-2-yl)-amide] | < 8
18 | O=C(Nc1cc(-c2cncc(NCC3CCOCC3)n2)c(Cl)cn1)[C@@H]1CCNC1 [Example 41, (R)-Pyrrolidine-3-carboxylic acid (5-chloro-4-{6-[(tetrahydro-pyran-4-ylmethyl)-amino]-pyrazin-2-yl}-pyridin-2-yl)-amide] | < 8
19 | COCCNc1cncc(-c2cc(NC(=O)[C@@H]3CCCNC3)ncc2Cl)n1 [Example 35, (R)-Piperidine-3-carboxylic acid {5-chloro-4-[6-(2-methoxy-ethylamino)-pyrazin-2-yl]-pyridin-2-yl}-amide] | 47
20 | C[C@@H](Nc1cncc(-c2cc(NC(=O)[C@@H]3CCCNC3)ncc2Cl)n1)C1CCCCC1 [Example 37, (R)-Piperidine-3-carboxylic acid {5-chloro-4-[6-((R)-1-cyclohexyl-ethylamino)-pyrazin-2-yl]-pyridin-2-yl}-amide] | < 8
21 | CN(CC1CCOCC1)c1cncc(-c2cc(NC(=O)[C@@H]3CCCNC3)ncc2Cl)n1 [Example 30, (R)-Piperidine-3-carboxylic acid (5-chloro-4-{6-[methyl-(tetrahydro-pyran-4-ylmethyl)-amino]-pyrazin-2-yl}-pyridin-2-yl)-amide] | 12
22 | O=C(Nc1cc(-c2cncc(NCC3CC3)n2)c(Cl)cn1)[C@@H]1CCCNC1 [Example 39, (R)-Piperidine-3-carboxylic acid {5-chloro-4-[6-(cyclopropylmethyl-amino)-pyrazin-2-yl]-pyridin-2-yl}-amide] | 17
23 | CS(=O)(=O)N1CCC[C@H](C(=O)Nc2cc(-c3cncc(NCC4CCOCC4)n3)c(Cl)cn2)C1 [Example 6] | < 8

Reference: patent publication US20120165306A1, “PYRAZINYLPYRIDINES USEFUL FOR THE TREATMENT OF PROLIFERATIVE DISEASES” (priority 2009, published 2012)
